The results in this text go back to EP4737445A1, “NOVEL SATURATED HETEROCYCLE-SUBSTITUTED HETEROARYL-CARBONOHYDRAZONOYL DICYANIDE COMPOUND AND USE THEREOF” (Korea Institute of Science and Technology, priority 2023, dated 2025).

What all share (type): in vivo
One data set deals with TauP301L-BiFC Tg mice. Nature of the data set: Balance beam test in tau transgenic mice. The following applies: oral 10 mg/kg, 5 times per week, 19 weeks, vehicle = 1.5. How it is done:
Compounds 6, 16, and 20 were orally administered to 8.2-month-old tau transgenic animal model (TauP301L-BiFC tg mouse) 5 times per week at a concentration of 10 mg/kg for a total of 19 weeks (n=10/group). WT mice of similar age to the vehicle-treated group of TauP301L-BiFC mice were used as a control group. Three types of behavioral experiments (Novel Objective Recognition test, Y-maze test, Balance beam test) were performed to confirm the improvement effects on cognitive function and motor function by drug administration, and these experiments and their results were as follows. • (1) Novel Objective Recognition test: To evaluate the object recognition memory ability of mice, two identical objects (Old-Old) were explored for 10 minutes in a 40 cm × 40 cm box. The next day, one object was replaced with a new object (Old-New) and exploration was performed again for 10 minutes, and then the time showing exploratory behavior toward the existing object and the new object was measured. Mice with normal object recognition ability (Recognition index) spent more time exploring the newly changed object, whereas mice with low object recognition ability could not distinguish the new object. The object recognition ability (Recognition index) values were as follows: (RI, Vehicle= 0.48, n.s., #20= 0.59, p<0.05, #6= 0.66, p<0.0001, #16= 0.58, p<0.05). In TauP301L-BiFC mice, the object recognition function improvement effect by drugs #20, #6, and #16 compared to the vehicle group was confirmed. • (2) Y-maze test: A Y-maze test was performed to evaluate the spatial working memory ability of mice. Whether the mice entered the three arms of the Y-maze by spontaneous alternation behavior for a certain period of time was measured through video recording. An increase in the spontaneous alternation ratio was considered as improved working memory ability. […] The time taken to cross a rod with a height of 50 cm and length of 80 cm and the number of times the feet went outside the rod during crossing were measured. […]

Data set [1] can be described thus: Pharmacokinetic study in rats (IV and PO, plasma). The following applies: Sprague-Dawley, rat, SD rats. How it is done: The pharmacokinetics of the compounds prepared according to Examples 1 to 46 were studied using experimental animal models. Specifically, 7- to 8-week-old SD rats (Koatech, Hana Sangsa Co., Ltd.) weighing approximately 250 to 300 g were purchased and maintained in a small animal simple breeding room set at a temperature of 22 ± 2°C, relative humidity of 50 ± 5%, lighting time of 12 hours (lights on at 8 AM and lights off at 8 PM), and illumination of 150 to 300 lux. Throughout the entire test period, feed was provided ad libitum, RO water was provided ad libitum, and fasting was performed for 16 hours before oral administration of the drug. After preparing the drugs under the conditions shown in Table 7 below, the drugs were administered by intravenous injection (IV) or oral administration (PO). Collected blood at 500 µL was collected in tubes containing heparin sodium and centrifuged at 8000 rpm at 2 to 8°C for 6 minutes to obtain plasma from the blood. 20 µL of the obtained plasma was taken, added to 180 µL of acetonitrile containing an internal standard, vortexed, and centrifuged at 15,000 rpm at 4°C for 5 minutes, and the obtained supernatant was analyzed by LC-MS/MS. The HPLC and MS conditions used for analysis are shown in Tables 8 and 9 below, respectively.
Specific PK parameters were calculated using Phoenix WinNonlin 6.4 version (Pharsight, USA) program and a non-compartmental analysis model, and the results are summarized in Table 11 below.

For the next data set, the target named is T1, tau (Homo sapiens, UniProt P10636, P618L).
T1 construct: BiFC fluorescent-protein fragments (two complementary halves); from tissue; host or cells: brain of TauP301L-BiFC transgenic mice
T1 sequence (P10636 1-441 isoform P10636-8 P301L): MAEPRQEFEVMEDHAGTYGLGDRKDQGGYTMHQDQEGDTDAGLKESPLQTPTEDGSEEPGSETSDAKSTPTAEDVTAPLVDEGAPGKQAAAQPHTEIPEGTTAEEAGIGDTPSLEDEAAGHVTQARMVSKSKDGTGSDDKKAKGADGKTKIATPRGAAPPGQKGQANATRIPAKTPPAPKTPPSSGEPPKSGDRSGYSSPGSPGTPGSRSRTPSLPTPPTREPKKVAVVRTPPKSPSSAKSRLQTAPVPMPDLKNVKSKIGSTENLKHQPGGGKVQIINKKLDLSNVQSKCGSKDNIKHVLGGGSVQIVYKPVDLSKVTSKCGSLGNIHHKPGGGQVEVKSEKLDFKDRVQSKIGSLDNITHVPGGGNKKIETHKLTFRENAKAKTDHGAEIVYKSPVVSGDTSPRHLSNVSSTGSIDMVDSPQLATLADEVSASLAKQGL
Nature of the data set: Tau phosphorylation immunoblot of RIPA-soluble brain lysates. The following applies: TauP301L-BiFC mice, oral 10 mg/kg, 19 weeks, vehicle = 100%. As for the experimental part: [2] To verify the tau pathology inhibitory efficacy of the drug confirmed through brain tissue imaging via brain lysate immunoblot, brain lysates were separated and purified, and immunoblot using tau antibody was performed in soluble and insoluble fractions. The brain was weighed, and RIPA lysis buffer containing the corresponding dose of protease and phosphatase inhibitors was added to the brain tissue. The tissue was then disrupted using a homogenizer and incubated at 4°C for 2 hours, and then centrifuged at 13,200 rpm at 4°C for 20 minutes. After centrifugation, the supernatant was collected as a RIPA-soluble fraction and stored at -80°C. To prepare the RIPA-insoluble fraction, the remaining pellet was washed once with RIPA lysis buffer containing 1 M sucrose, and then 2% SDS solution (1 mL per 1 g of tissue) was added and incubated at room temperature for 1 hour. Thereafter, the mixture was centrifuged at 13,200 rpm for 1 minute at room temperature, and the supernatant was collected as a RIPA-insoluble fraction and stored at -80°C.
For tau immunoblot analysis, 20 µg of brain tissue RIPA-soluble sample was separated on a 10% SDS-PAGE gel and transferred to a PVDF membrane, and RIPA-insoluble samples were diluted 10-fold in 2% SDS solution and 20 µL of each sample was loaded on an SDS-PAGE gel. The total tau and phosphorylated tau levels were detected by Tau5, which is an anti-tau antibody, and pS199 and pS396, which are anti-phosphorylated tau antibodies. ImageJ software (NIH) was used to quantify band intensity.

For `Cn1c(N2CCOCC2)nc2cc(NN=C(C#N)C#N)ccc21` [Compound 6, (1-methyl-2-morpholino-1H-benzo[d]imidazol-5-yl)carbonohydrazonoyl dicyanide], the “Average number of times feet went outside the rod (n)” value (“Average number” for short) with TauP301L-BiFC Tg mice turned out to be 1.1. The bioavailability in data set [1] (IV 2 mg/kg, PO 10 mg/kg) came to 42%. Besides, in data set [1] (IV, 2 mg/kg), the AUC (usually the area under the concentration-time curve, a measure of exposure) worked out at 1700 ng·h/mL; the Cmax (usually the peak of the concentration-time curve) was determined as 9870 ng/mL; the clearance came out at 19.5 mL/min/kg; the half-life (as a rule, the time in which the quantity being followed falls by half) is 34.8 min. In data set [1] (PO, 10 mg/kg), the area under the curve (AUC) was found to be 3570 ng·h/mL, the Cmax is 4880 ng/mL, the Tmax (usually the time from dosing to the highest level) is 15 min and the half-life was 53.4 min. Moreover, on tau, the “pS199 tau phosphorylation immunoblot” value was 48% and the “pS396 tau phosphorylation immunoblot” value is listed as 60%.

With `CC1COCCN1c1nc2ccc(NN=C(C#N)C#N)cc2o1` (centres unmarked) [Compound 16, (2-(3-methylmorpholino)benzo[d]oxazol-6-yl)carbonohydrazonoyl dicyanide], the “Average number” value with TauP301L-BiFC Tg mice worked out at 0.8. Further, the bioavailability in data set [1] (IV 2 mg/kg, PO 10 mg/kg) turned out to be 114%. Moreover, in data set [1] (IV, 2 mg/kg), the AUC is 4090 ng·h/mL, the highest level (Cmax) was 4090 ng/mL, the clearance came to 8.33 mL/min/kg and the half-life is 30.6 min. Moreover, in data set [1] (PO, 10 mg/kg), the AUC was 23300 ng·h/mL, the Cmax stood at 11100 ng/mL, the Tmax is 40.2 min and the half-life is 112 min. Further, on tau, the “pS199 tau phosphorylation immunoblot” value is reported as 24% and the “pS396 tau phosphorylation immunoblot” value is reported as 40%.

On to `N#CC(C#N)=NNc1ccc2nc(N3C4CCC3COC4)oc2c1` [Compound 20, (2-(3-oxa-8-azabicyclo[3.2.1]octan-8-yl)benzo[d]oxazol-6-yl)carbonohydrazonoyl dicyanide], for which the “Average number” value in the data set with TauP301L-BiFC Tg mice is on record as 0.7. The bioavailability in data set [1] (IV 1 mg/kg, PO 15 mg/kg) was found to be 114%. Moreover, in data set [1] (IV, 1 mg/kg), the AUC was 130 ng·h/mL, the clearance was 132 mL/min/kg and the half-life is 12 min. Moreover, in data set [1] (PO, 15 mg/kg), the AUC came out at 2210 ng·h/mL, the concentration peaked (Cmax) at 2050 ng/mL, the Tmax came out at 24 min and the half-life is 96 min. In addition, on tau, the “pS199 tau phosphorylation immunoblot” value was 60% and the “pS396 tau phosphorylation immunoblot” value stood at 71%.
